From ChEMBL document CHEMBL1155176, “Investigating Toll-like receptor agonists for potential to treat hepatitis C virus infection” (Antimicrob Agents Chemother, 2007)
Calls of active or inactive are those of the source. The calls are words filed in the database; no cut-off is given here. Residues, ends and D or L forms follow the SMILES beside them. *: point of attachment. X1 = CCCCCCCCCCCCCCCC(=O)OCC(C*)OC(=O)CCCCCCCCCCCCCCC; Palmitoyl = CCCCCCCCCCCCCCCC(=O)*

What was measured:
PBMC [1] = experiment: (§1) Increase in IFNalpha level in human PBMC after 24 hrs relative to control; type: functional, cell-based
PBMC [2] = experiment: Toxic induction of IL1-beta level in human PBMC assessed as drug level causing maximal cytokine induction after 24 hrs relative to control; type: toxicity, cell-based
PBMC [3] = experiment: Increase in 2',5'-oligoadenylate synthase level in human PBMC after 24 hrs by PCR method relative to control; type: functional, cell-based
Hepatitis C virus [4] = experiment: Antiviral activity against HCV infected human Huh7 replicon cells treated with drug-induced human PBMC supernatants assessed as viral levels by luciferase assay; type: functional, organism-based; conditions: Hepacivirus hominis
PBMC [5] = experiment: Induction of IFNalpha2a level in human PBMC assessed as drug level causing maximal cytokine induction after 24 hrs relative to control; type: functional
Hepatitis C virus [6] = experiment: Antiviral activity against HCV infected human Huh7 replicon cells treated with 3 uM drug-induced human PBMC supernatants assessed as viral levels in presence of type I IFN receptor antibody by luciferase assay; type: functional, organism-based; conditions: Hepacivirus hominis
PBMC [7] = experiment: Toxic induction of IL6 level in human PBMC assessed as drug level causing maximal cytokine induction after 24 hrs relative to control; type: toxicity, cell-based
Hepatitis C virus [8] = experiment: Antiviral activity against HCV infected human Huh7 replicon cells assessed as viral levels by luciferase assay; type: functional, organism-based; conditions: Hepacivirus hominis; Huh-7
PBMC [9] = experiment: Toxic induction of TNFalpha level in human PBMC assessed as drug level causing maximal cytokine induction after 24 hrs relative to control; type: toxicity, cell-based
Hepatitis C virus [10] = experiment: Antiviral activity against HCV infected human Huh7 replicon cells treated with 20 uM drug-induced human PBMC supernatants assessed as viral levels in presence of type I IFN receptor antibody by luciferase assay; type: functional, organism-based; conditions: Hepacivirus hominis
Hepatitis C virus [11] = experiment: Antiviral activity against HCV infected human Huh7 replicon cells treated with 200 nM drug-induced human PBMC supernatants assessed as viral levels in presence of type I IFN receptor antibody by luciferase assay; type: functional, organism-based; conditions: Hepacivirus hominis
Hepatitis C virus [12] = experiment: Antiviral activity against HCV infected human Huh7 replicon cells treated for 24 hrs with drug-induced human PBMC supernatants assessed as viral levels by luciferase assay; type: functional, organism-based; conditions: Hepacivirus hominis
Hepatitis C virus [13] = experiment: Antiviral activity against HCV infected human Huh7 replicon cells treated for 48 hrs with drug-induced mixed donor human PBMC supernatants assessed as viral levels by luciferase assay; type: functional, organism-based, Hepacivirus hominis
Hepatitis C virus [14] = experiment: Antiviral activity against HCV infected human Huh7 replicon cells treated for 48 hrs with drug-induced single donor human PBMC supernatants assessed as viral levels by luciferase assay; type: functional, organism-based, Hepacivirus hominis
PBMC [15] = experiment: as §1; type: functional, cell-based; remark: listed apart in the source
PBMC [16] = experiment: Toxicity assessed as increase in TNFalpha level in human PBMC after 6 hrs relative to control; type: cell-based
PBMC [17] = experiment: Increase in 2',5'-oligoadenylate synthase level in human PBMC after 24 hrs relative to control; type: functional, cell-based
Hepatitis C virus [18] = experiment: Antiviral activity against HCV infected human Huh7 replicon cells treated with 100 nM drug-induced human PBMC supernatants assessed as viral levels in presence of type I IFN receptor antibody by luciferase assay; type: functional, organism-based; conditions: Hepacivirus hominis
PBMC [19] = experiment: Toxicity assessed as increase in IL6 level in human PBMC after 24 hrs relative to control; type: functional, cell-based

EC50 (Hepatitis C virus [13]) | EC50 (Hepatitis C virus [14]) | SMILES | Activity (PBMC [1]) | Activity (PBMC [2]) | Activity (PBMC [3]) | Activity (Hepatitis C virus [4]) | Activity (PBMC [5]) | Activity (Hepatitis C virus [6]) | Activity (PBMC [7]) | Activity (Hepatitis C virus [8]) | Activity (PBMC [9]) | Activity (Hepatitis C virus [10]) | Activity (Hepatitis C virus [11]) | Activity (Hepatitis C virus [12]) | Activity (PBMC [15]) | fold change (FC) (PBMC [16]) | Activity (PBMC [17]) | Activity (Hepatitis C virus [18]) | Activity (PBMC [19])
 |  | CCCc1nc2c(N)nc3ccccc3c2s1 | Dose-dependent effect | 3.3 µM | Dose-dependent effect | Active | 10 µM | inactive | 3.3 µM | inactive | 10 µM |  |  |  |  |  |  |  | 
 |  | Cc1cn([C@H]2C[C@H](OP(=O)(O)OC[C@H]3O[C@@H](n4cnc5c(=O)[nH]c(N)nc54)[C@H](O)[C@@H]3OP(=O)(O)OC[C@H]3O[C@@H](n4cc(C)c(=O)[nH]c4=O)C[C@@H]3OP(=O)(O)OC[C@H]3O[C@@H](n4cc(C)c(=O)[nH]c4=O)C[C@@H]3OP(=O)(O)OC[C@H]3O[C@@H](n4cc(C)c(=O)[nH]c4=O)C[C@@H]3OP(=O)(O)OC[C@H]3O[C@@H](n4cc(C)c(=O)[nH]c4=O)C[C@@H]3OP(=O)(O)OC[C@H]3O[C@@H](n4cnc5c(=O)[nH]c(N)nc54)[C@H](O)[C@@H]3OP(=O)(S)OC[C@H]3O[C@@H](n4ccc(N)nc4=O)[C@H](O)[C@@H]3OP(=O)(O)OC[C@H]3O[C@@H](n4cc(C)c(=O)[nH]c4=O)C[C@@H]3OP(=O)(O)OC[C@H]3O[C@@H](n4cc(C)c(=O)[nH]c4=O)C[C@@H]3O)[C@@H](COP(=O)(O)OC[C@H]3O[C@@H](n4cnc5c(=O)[nH]c(N)nc54)[C@H](O)[C@@H]3OP(O)(=S)OC[C@H]3O[C@@H](n4ccc(N)nc4=O)[C@H](O)[C@@H]3OP(=O)(O)OC[C@H]3O[C@@H](n4cc(C)c(=O)[nH]c4=O)C[C@@H]3OP(=O)(O)OC[C@H]3O[C@@H](n4cnc5c(=O)[nH]c(N)nc54)[C@H](O)[C@@H]3OP(=O)(O)OC[C@H]3O[C@@H](n4cc(C)c(=O)[nH]c4=O)C[C@@H]3OP(=O)(O)OC[C@H]3O[C@@H](n4cc(C)c(=O)[nH]c4=O)C[C@@H]3OP(=O)(O)OC[C@H]3O[C@@H](n4cc(C)c(=O)[nH]c4=O)C[C@@H]3OP(=O)(O)OC[C@H]3O[C@@H](n4cc(C)c(=O)[nH]c4=O)C[C@@H]3OP(=O)(O)OC[C@H]3O[C@@H](n4cnc5c(=O)[nH]c(N)nc54)[C@H](O)[C@@H]3OP(O)(=S)OC[C@H]3O[C@@H](n4ccc(N)nc4=O)[C@H](O)[C@@H]3OP(=O)(O)OC[C@H]3O[C@@H](n4cc(C)c(=O)[nH]c4=O)C[C@@H]3OP(=O)(O)OC[C@H]3O[C@@H](n4cc(C)c(=O)[nH]c4=O)C[C@@H]3O)O2)c(=O)[nH]c1=O (some centres not stated) | Dose-dependent effect | 5 µM | Dose-dependent effect | Active | 0.2 µM |  | 0.2 µM | inactive | 5 µM |  |  |  |  |  |  |  | 
 |  | CC(C)Cn1cnc2c(N)nc3ccccc3c21 [IMIQUIMOD] | Dose-dependent effect | 0.1 µg/mL | Dose-dependent effect | Active | 1 µg/mL |  | 1 µg/mL | inactive | 1 µg/mL | inactive |  |  |  |  |  |  | 
 |  | CCCCCCCCCCCCCCCC(=O)N[C@@H](CSCC(COC(=O)CCCCCCCCCCCCCCC)OC(=O)CCCCCCCCCCCCCCC)C(=O)N[C@@H](CO)C(=O)N[C@@H](CCCCN)C(=O)N[C@@H](CCCCN)C(=O)N[C@@H](CCCCN)C(=O)N[C@@H](CCCCN)C(=O)O (some centres not stated) (Palmitoyl-C(X1)SKKKK-OH) |  | 1 µM |  | Active | 0.3 µM |  | 1 µM | inactive | 0.1 µM |  |  |  |  |  |  |  | 
 |  | COCCOc1nc(N)c2[nH]c(=O)n(Cc3ccccc3)c2n1 | Dose-dependent effect | 1 µM | Dose-dependent effect | Active | 0.1 µM |  | 1 µM | inactive | 1 µM |  | inactive |  |  |  |  |  | 
24 nM | 26.5 nM | CCOCc1nc2c(N)nc3ccccc3c2n1CC(C)(C)O [RESIQUIMOD] | Dose-dependent effect | 1 µM | Dose-dependent effect | Active | 0.1 µM |  | 1 µM | inactive | 1 µM |  |  | Active | Active | 2.5 | Active | inactive | Active
